Source: patent US20240293358A1, “COMPOSITION COMPRISING PPAR-MODULATOR AND AN UROLITHIN DERIVATIVE AND USES THEREOF” (Universite de Bordeaux, priority 0001, published 2024)

System: Costello (CS) zebrafish injected with HRASV12 plasmid
Test: Phenotype analysis (survival, developmental defects) of Costello zebrafish embryos
Type: in vivo, Zebrafish (Danio rerio)
Conditions: HRASG12V-embryos; for survival rate: single agent 20 μM by bathing 1 dpf to 5 dpf, 4 days of treatment; for number of defective individuals among alive embryo: single agent 20 μM, vehicle (DMSO) 60%
Experimental: Zebrafish (Danio rerio) embryos were obtained from natural spawnings and raised in embryo medium (E3) (97) at 28.5° C. Embryos were staged as described previously [46]. Starting 5 days post-fertilisation (dpf), embryos were fed daily. […] 1 nl of 12.5 ng/μl of GFP-H-RASV12 plasmid and 12.5 ng/μl of T2 transposase mRNA were co-injected in the first cell of zebrafish eggs. Control embryos were injected with the same volume of PBS. H-RASV12 was expressed in zebrafish embryo under heat shock, 30 mn at 37° C. at 1 day post fertilization (dpf) and embryo expressing GFP at 2 dpf were selected for the study.
The embryo injected with the HRASV12 plasmid were treated daily by bathing from 1 dpf to 5 dpf with respectively 20 μM bezafibrate, 20 μM urolithin A, 20 μM bezafibrate+20 μM urolithin A, 10 μM bezafibrate+5 μM urolithin A, 5 μM bezafibrate+5 μM urolithin A. Control embryos were treated with the same volume of DMSO corresponding to 0.2% of DMSO. The imaging and phenotype analysis of mortality and defects of appearance after plasmid injection were performed on alive embryo anesthetized using ethyl 3-aminobenzoate methanesulfonate, MS-222 (Sigma, Cat. #A-5040) at 200 mg/L at 2 days post fertilization, 3 dpf, 4 dpf and 5 dpf using a ZEISS axiocam stereomicroscope (ZEISS, Germany).
Embryos injected with HRASV12 plasmid were selected at 2 days post fertilization (dpf) following their GFP^+/+ expression. HRASV12 plasmid was activated under a heat shock of embryos at 37° C. for 30 minutes. Embryos were observed daily from 2 dpf to 5 dpf in order to analyze the effect of HRASV12 overexpression on their physiological development (FIG. 1A, 1B).

SMILES	survival rate	number of defective individuals among alive embryo
CC(C)(Oc1ccc(CCNC(=O)c2ccc(Cl)cc2)cc1)C(=O)O [bezafibrate, 2-(4-{2-[(4-chlorobenzoyl)amino]ethyl}phenoxy)-2-methylpropanoic acid]	up to 70%	45%
O=c1oc2cc(O)ccc2c2ccc(O)cc12 [urolithin A]	≤ 65%	43%
